pKi: −log10 of the molar value.
Target: T1, KHK (Homo sapiens, UniProt P50053)
T1 construct: His tag; made in house; host or cells: E. coli
T1 sequence (P50053 1-298): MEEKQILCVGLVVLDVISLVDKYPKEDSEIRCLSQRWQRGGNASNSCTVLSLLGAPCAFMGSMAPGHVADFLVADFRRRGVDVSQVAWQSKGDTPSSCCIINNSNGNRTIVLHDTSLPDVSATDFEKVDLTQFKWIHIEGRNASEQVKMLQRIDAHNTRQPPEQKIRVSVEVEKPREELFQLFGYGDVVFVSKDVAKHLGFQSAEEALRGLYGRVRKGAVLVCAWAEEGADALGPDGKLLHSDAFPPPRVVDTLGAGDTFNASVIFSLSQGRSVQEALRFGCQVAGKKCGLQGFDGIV
Assay: Measurement of in vitro activity of KHK inhibitor (Transcreener ADP2 TR-FRET Red Assay)
Format: biochemical
Details: purified His-tagged KHK expressed in E. coli; 30 min preincubation with inhibitor, 15 min substrate reaction; Morrison equation
Procedure: KHK was expressed in E. coli, and purified using a His tag. To measure the activity of the purified KHK, a Transcreener ADP2 TR-FRET Red Assay kit of BellBrook Labs was used. The Transcreener ADP2 TR-FRET Red Assay kit is a method of measuring an amount of generated ADP using TR-FRET after proper concentrations of KHK and ATP, and a fructose-containing solution were reacted for 15 minutes. To measure the activity of a KHK inhibitor, KHK and a proper concentration of an inhibitor were first reacted for 30 minutes, and reacted with a solution containing a KHK substrate for 15 minutes. In addition, after the TR-FRET reaction for 1 hour, fluorescence was measured using an Envision apparatus of PerkinElmer. A setting value of the Envision apparatus was determined according to the TR-FRET optimization procedures published by BellBrook Labs.
The resulting value for each concentration of the KHK inhibitor is determined a ratio of a 665-nm wavelength and a 615-nm wavelength. Here, the 665/615 ratio was converted to an ADP concentration based on an ADP standard curve, and the inhibitory activity, a Ki value, was obtained using the Morrison equation in statistical software (Prizm).

Q: `C[C@H]1CCN1c1nc(N2C[C@H]3C[C@@H](C2)[C@@H]3CC(=O)O)c2c(c1C#N)CCC2` [Example 1, 2-((1R,5S,6S)-3-(4-cyano-3-((S)-2-methylazetidin-1-yl)-6,7-dihydro-5H-cyclopenta[c]pyridin-1-yl)-3-azabicyclo[3.1.1]heptan-6-yl)acetic acid] was tested. Which pKi did it give?
A: ≥ 7.00

Q: With `C[C@H]1CCN1c1nc(N2C[C@H]3C[C@@H](C2)[C@@H]3CC(=O)O)c2c(c1C#N)CCCC2` [Example 2, 2-((1R,5S,6S)-3-(4-cyano-3-((S)-2-methylazetidin-1-yl)-5,6,7,8-tetrahydroisoquinolin-1-yl)-3-azabicyclo[3.1.1]heptan-6-yl)acetic acid] as the molecule, how does the pKi read?
A: ≥ 7.00

Q: With `C[C@H]1CCN1c1nc(N2CC3CC(C2)C3CC(=O)O)c2c(c1C#N)CCCCC2` (stereo partly drawn) [Example 3, 2-(3-(4-cyano-3-((S)-2-methylazetidin-1-yl)-6,7,8,9-tetrahydro-5H-cyclohepta[c]pyridin-1-yl)-3-azabicyclo[3.1.1]heptan-6-yl)acetic acid] as the molecule, how does the pKi read?
A: ≥ 7.00

Q: With `C[C@H]1CCN1c1nc(N2C[C@H]3C[C@@H](C2)[C@@H]3CC(=O)O)c2c(c1C#N)CCOC2` [Example 4, 2-((1R,5S,6S)-3-(5-cyano-6-((S)-2-methylazetidin-1-yl)-3,4-dihydro-1H-pyrano[3,4-c]pyridin-8-yl)-3-azabicyclo[3.1.1]heptan-6-yl)acetic acid] as the molecule, how does the pKi read?
A: ≥ 7.00

Q: `C[C@H]1CCN1c1nc(N2CC3CC(C2)C3CC(=O)O)c2c(n1)C(C)(C)OC2` (stereo partly drawn) [Example 5, 2-(3-(7,7-dimethyl-2-((S)-2-methylazetidin-1-yl)-5,7-dihydrofuro[3,4-d]pyrimidin-4-yl)-3-azabicyclo[3.1.1]heptan-6-yl)acetic acid] was tested. Which pKi did it give?
A: 6.00 to 7.00

Q: How did the pKi turn out when `C[C@@H]1OCc2c1nc(N1CC[C@@H]1C)nc2N1C[C@H]2C[C@@H](C1)[C@@H]2CC(=O)O` [Example 6, 2-((1R,5S,6S)-3-((S)-7-methyl-2-((S)-2-methylazetidin-1-yl)-5,7-dihydrofuro [3,4-d]pyrimidin-4-yl)-3-azabicyclo[3.1.1]heptan-6-yl)acetic acid] was run?
A: 6.00 to 7.00

Q: How did the pKi turn out when `C[C@@H]1OCc2c1nc(N1CC[C@@H]1C)nc2N1C[C@@H]2[C@@H](CC(=O)O)[C@@H]2C1` [Example 7, 2-((1R,5S,6S)-3-((S)-7-methyl-2-((S)-2-methylazetidin-1-yl)-5,7-dihydrofuro[3,4-d]pyrimidin-4-yl)-3-azabicyclo[3.1.0]hexan-6-yl)acetic acid] was run?
A: 6.00 to 7.00

Q: `C[C@H]1CCN1c1nc(N2C[C@H]3C[C@@H](C2)[C@@H]3CC(=O)O)c2c(n1)C(F)(F)CC2` [Example 8, 2-((1R,5S,6S)-3-(7,7-difluoro-2-((S)-2-methylazetidin-1-yl)-6,7-dihydro-5H-cyclopenta[d]pyrimidin-4-yl)-3-azabicyclo[3.1.1]heptan-6-yl)acetic acid] was tested. Which pKi did it give?
A: ≥ 7.00

Q: How did the pKi turn out when `C[C@H]1CCN1c1nc(N2C[C@@H]3[C@@H](CC(=O)O)[C@@H]3C2)c2c(n1)C(F)(F)CC2` [Example 9, 2-((1R,5S,6S)-3-(7,7-difluoro-2-((S)-2-methylazetidin-1-yl)-6,7-dihydro-5H-cyclopenta[d]pyrimidin-4-yl)-3-azabicyclo[3.1.0]hexan-6-yl)acetic acid] was run?
A: ≥ 7.00

Q: How did the pKi turn out when `C[C@H]1CCN1c1nc(N2C[C@H]3C[C@@H](C2)[C@@H]3CC(=O)O)c2c(n1)C(F)(F)CCC2` [Example 10, 2-((1R,5S,6S)-3-(8,8-difluoro-2-((S)-2-methylazetidin-1-yl)-5,6,7,8-tetrahydroquinazolin-4-yl)-3-azabicyclo[3.1.1]heptan-6-yl)acetic acid] was run?
A: ≥ 7.00

Q: `C[C@H]1CCN1c1nc(N2C[C@@H]3[C@@H](CC(=O)O)[C@@H]3C2)c2c(n1)C(F)(F)CCC2` [Example 11, 2-((1R,5S,6S)-3-(8,8-difluoro-2-((S)-2-methylazetidin-1-yl)-5,6,7,8-tetrahydroquinazolin-4-yl)-3-azabicyclo[3.1.0]hexan-6-yl)acetic acid] was tested. Which pKi did it give?
A: ≥ 7.00

Q: With `O=C(O)C[C@@H]1[C@H]2CN(c3nc(N4CCCC4)nc4c3CCCC4(F)F)C[C@@H]12` [Example 12, 2-((1R,5S,6S)-3-(8,8-difluoro-2-(pyrrolidin-1-yl)-5,6,7,8-tetrahydroquinazolin-4-yl)-3-azabicyclo[3.1.0]hexan-6-yl)acetic acid] as the molecule, how does the pKi read?
A: 6.00 to 7.00
